What all share (format): cell-based
The nature of one data set: in vitro. The conditions noted are these: for respective culture cells; read-out: toxicity CC50.
A further data set deals with MT-4 and Hela CD4 cells. Nature of the data set: Cytotoxicity in the anti-HIV test, MTT colorimetric method. The conditions noted are these: MT-4 cells or Hela CD4 cells; in words. How it is done: The tissue culture cells were MT-4 and Hela CD4. The HIV was prepared from the supernatant solutions of the culture fluids of HIV-producing MT-4 and HIV cells, or Hela CD4 and HIV cells. The media were 10% fetal calf serum, and for culturing, 0.2 ml of MT-4 cells or Hela CD4 cells and 0.2 ml of HIV cells were placed in each well of a 24-well culture tray. After virus adsorption (the virus infectivity titer was 100-CCID50 per about 10^5 cells), each drug such as PM-1001 diluted in a medium was added, to make a total amount of 1.0 ml, and the mixture was cultured at 37° C. for 4 to 6 days. As controls, cells not infected with HIV and cells untreated with any drug such as PM-1001 were used. […] In the MTT colorimetry, the absorbance is measured by means of a colorimeter using a wavelength of 540 nm, to obtain the vital cell number proportional to the absorbance. If all the cells are dead due to virus infection, the absorbance becomes almost zero.
(§1) With the concentration of each drug such as PM-1001 as a parameter, the cell growth rate was examined. […] That is, the drug concentration capable of improving the absorbance of […] up to 50% (to prevent cytocidal cell degeneration) is obtained and expressed in micromoles (μM). […] ND stands for “not determined”.

For data set [1], the system named is HIV (human immunodeficiency virus). Nature of the data set: Inhibition of HIV cytopathic effect, MTT colorimetric method. The conditions noted are these: HIV produced with either MT-4 cells or Hela CD4 cells; in words, figures only in FIG. 2. How it is done:
The antiviral effect against HIV (human immunodeficiency virus) and cytotoxicity of the PM-1001 and PM-1002 of this invention synthesized as described above were examined in comparison with those of K6[C0W12O40]. (called PM-1003), i.e., a heteropolyoxotungstate salt having perfect Keggin structure and conventional dextran sulfate (DS5000) and azidothymidine (AZT) respectively utilized because of their excellent anti-HIV effect. The inhibition of cell growth of HIV was measured according to the MTT colorimetric method.
The tissue culture cells were MT-4 and Hela CD4. The HIV was prepared from the supernatant solutions of the culture fluids of HIV-producing MT-4 and HIV cells, or Hela CD4 and HIV cells. […] In the MTT colorimetry, the absorbance is measured by means of a colorimeter using a wavelength of 540 nm, to obtain the vital cell number proportional to the absorbance. If all the cells are dead due to virus infection, the absorbance becomes almost zero.
as §1
For orientation: Protection from cytopathic effect is a common read-out in antiviral testing.

The test system of data set [2] is DFV, FluV-A, RSV, PfluV, CDV, HIV. As to the kind of experiment: Spectrum of antiviral activity (FIG. 3), MTT colorimetric method. The conditions noted are these: all viruses of FIG. 3; in words. On the technique in general: Formazan colour is commonly taken as a measure of viable cells.

This is an account of results in patent US6565890B2, “Antiviral drugs containing heteropolyanions” (priority 2001, dated 2003).

A value given as a limit tells only on which side of the number the result lay.

As to `NC(=O)c1ncn([C@@H]2O[C@H](CO)[C@@H](O)[C@H]2O)n1` [ribavirin], the CC50 in “in vitro” is > 100 µM.

K6H4[(SbW9O33)2V3O3].29.5H2O [PM-1001]: the “adverse effects (cytotoxicity)” value in the data set with MT-4 and Hela CD4 cells is recorded as “low adverse effects”. Besides, in data set [1], the “potent efficacy against HIV” value is recorded as “very high potent efficacies”. Besides, the “antiviral effects (FIG. 3, EC50 comparison)” value in data set [2] is on record as “remarkably excellent antiviral effects”.

Consider K6H6[(SbW9O33)2V3O3].29.5H2O [PM-1002], for which, in the data set with MT-4 and Hela CD4 cells, the “adverse effects (cytotoxicity)” value is reported as “low adverse effects”. For the same compound, the “potent efficacy against HIV” value in data set [1] is reported as “very high potent efficacies”. In data set [2], the “antiviral effects (FIG. 3, EC50 comparison)” value is on record as “remarkably excellent antiviral effects”.

As a reminder, the CC50 is the concentration that lowers cell viability or growth by half.
